US7563792B2, “Biguanide and dihydrotriazine derivatives” (priority 2002, dated 2009)

Experiments:
[1] = tested on: Plasmodium berghei (KBG strain); assay: Mouse malaria model (modified Thomson model), percent survival; assay type: in vivo, CD-1 mice; details: twice a day for 3 days from day 3 post infection, orally or subcutaneously (route not stated), P. berghei infected mice
Method: Seven (7) mice are typically used in each experimental group. The mice are housed 3 to 4 per cage and are maintained at a temperature of […] with a 12-hour day light cycle. The mice are fed a standard Ralston Purina® mouse chow and given water ad. lib. Their cages and water bottles were changed twice a week.
Preparation of the test compounds oral administration involved grinding the material with a mortar and pestle before diluting in 0.5% hydroxyethylcellulose-Tween 80 (polyoxyethylene (20) sorbitan mono-oleate) for oral administration. For subcutaneous administration, the test compounds were suspended in peanut oil.
The mice were infected intraperitoneally with 50,000 red blood cells infected with a drug-sensitive strain of Plasmodium berghei (KBG strain) on day 0. The inoculum was obtained from a donor mouse having a parasitemia between 5% and 10%.
The compounds were administered according to the weight of the mice. The mice were weighed each day before the drugs were administered. Test compounds are given in a volume of 10 ml/kg of body weight. Compounds were administered either orally or subcutaneously twice a day (6 hours apart) for 3 days starting on the 3rd day post infection. Blood films were taken on day 6 post-infection and twice weekly for 30 days. The level of parasites (parasitemia) was determined from the Giemsa stained blood films.
Antimalarial activity was quantified by a percent survival calculated for each treated group on Day 31.

Mycobacterium avium = assay: In vitro MIC against Mycobacterium avium isolates, microtiter plate, turbidity; assay type: cell-based; details: 18 to 21 days
[2] = tested on: Mycobacterium tuberculosis; assay: In vitro MIC against Mycobacterium tuberculosis, microtiter plate, turbidity; assay type: cell-based; details: Mycobacterium tuberculosis strain Erdmann; 37° C., 18 to 21 days
Method: Antituberculosis activities were assessed in vitro using the biologically active dihydrotriazine metabolites of the imidodicarbonimidic diamides. The assay methodology is detailed as follows:
To tissue culture treated 96-well microtiter plates were added 20 μl of a solution of test compound. The plates were allowed to dry in an incubator at a temperature between 50° to 60° C. for 20 to 30 minutes. Then the plates were subjected to UV light for 15 minutes to kill bacteria. The plates were generally used within 2-3 days of being made. To each well was added 100 μl of culture broth and the appropriate strain of Mycobacterium tuberculosis or Mycobacterium avium. The plates were then incubated at 37° C. for between 18 days to 21 days. Growth was assessed by turbidity measurement and MICs reported in μg/ml.

For “1-(3-(4-trifluoromethoxyphenoxy)propyloxy)-5-isopropyl biguanide hemisuccinate [Compound of Example 5]”, the “% SURVIVAL AT DAY 31” value ([1]; dose 4 mg/kg) was 0%, the “% SURVIVAL AT DAY 31” value ([1]; dose 8 mg/kg) was 14% and the “% SURVIVAL AT DAY 31” value ([1]; dose 16 mg/kg) was 86%. For the same molecule, the “% SURVIVAL AT DAY 31” value ([1]; dose 32 mg/kg) was 100% and the “% SURVIVAL AT DAY 31” value ([1]; dose 64 mg/kg) was 100%.
In the case of Cl.N=C(NOCCCOc1ccc(OC(F)(F)F)cc1)NC(=N)NC1CC1 [Compound of Example 6, 1-(3-(4-trifluoromethoxyphenoxy)propyloxy)-5-cyclopropylbiguanide hydrochloride], the “% SURVIVAL AT DAY 31” value ([1]; dose 4 mg/kg) is reported as 0%, the “% SURVIVAL AT DAY 31” value ([1]; dose 8 mg/kg) is reported as 14% and the “% SURVIVAL AT DAY 31” value ([1]; dose 16 mg/kg) is reported as 43%. The “% SURVIVAL AT DAY 31” value ([1]; dose 32 mg/kg) was 71% and the “% SURVIVAL AT DAY 31” value ([1]; dose 64 mg/kg) was 100%.
Molecule CC1(C)NC(=N)NC(=N)N1OCCCOc1ccc(OC(F)(F)F)cc1.Cl [Metabolite of Compound of Example 5, 6,6-Dimethyl-1-[3-(4-trifluoromethoxy-phenoxy)-propoxy][1,3,5]triazinane-2,4-diylidenediamine hydrochloride] has an MIC (Mycobacterium avium; Mycobacterium avium strain 101, 37° C.) of 3.1 µg/mL, an MIC (Mycobacterium avium; Mycobacterium avium strain 3404-4, 37° C.) of 0.6 ± 0.3 µg/mL and an MIC (Mycobacterium avium; Mycobacterium avium strain Farino, 37° C.) of 1 ± 0.85 µg/mL. For the same molecule, the MIC (Mycobacterium avium; Mycobacterium avium strain LPR, 37° C.) was 37.5 ± 17.7 µg/mL and the MIC [2] was 19 µg/mL.
